These results are taken from ChEMBL document CHEMBL1201862, “PubChem BioAssay data set” (2004).

The structures appear in SMILES notation.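 Growth conditions: 96-well plates. Treatment: test compound, 48 hours, 5 concentrations. Analysis: linear interpolation between bracketing concentrations; unreached endpoints set to highest concentration. GI50 is the concentration that inhibits growth by half.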 Calls of active or inactive are those of the source. Rule as the data show it: active = GI50 up to about 1.1 µM and inactive = higher. Some results are limits rather than exact numbers.

Test systems include SK-MEL-28; M14; NCI-H23; SK-MEL-5; SR; TK-10; UO-31; SF-295; EKVX; RXF 393; HL-60; HT-29; NCI-H226; A549; ACHN; SK-MEL-2; A498.
Common to all, as to test: NCI-60 cell line screen, 48 h

In the case of `NC1=NC(=O)/C(=C/c2ccccc2[N+](=O)[O-])C(N)=N1`, the GI50 with SK-MEL-28, in the test with M14, in the test with NCI-H23, in the test on SK-MEL-5, in the test with SR and in the test with TK-10 was > 100 µM (inactive) throughout. The GI50 in the test with UO-31, with SF-295, in the test with EKVX, in the test on RXF 393, in the test with HL-60 and in the test with HT-29 was > 100 µM (inactive) in each case. Further, the GI50 in the test with NCI-H226, in the test with A549, with ACHN and in the test with SK-MEL-2 was > 100 µM (inactive) throughout.

`CCOc1ccccc1NC(=O)CC1SC(Nc2ccc([N+](=O)[O-])cc2)=NC1=O` (stereo not drawn): the GI50 with SK-MEL-28 was 25.3 µM (inactive); in the test with M14, 23.3 µM (inactive); with NCI-H23, 16.6 µM (inactive); with SK-MEL-5 it was 16 µM (inactive); in the test on TK-10, 25.4 µM (inactive); in the test with UO-31 it was 17.2 µM (inactive). The GI50 in the test on SF-295 is 18 µM (inactive); with EKVX, 27.5 µM (inactive); in the test with RXF 393, 18.1 µM (inactive); in the test with HL-60 it was 32.6 µM (inactive); in the test with HT-29 it was 21.7 µM (inactive); with NCI-H226, 20.4 µM (inactive). The GI50 is 18.5 µM (inactive) with A549, 17.3 µM (inactive) with ACHN and 18.3 µM (inactive) in the test with SK-MEL-2.

For the molecule `CCOc1ccccc1NC(=O)C1=C(C)NC(C)=C(C(=O)Nc2ccccc2OCC)C1c1ccc2c(c1)OCO2`, the GI50 in the test on SK-MEL-28 was 35.2 µM (inactive); with M14, 18.8 µM (inactive); in the test on NCI-H23 it was 23.9 µM (inactive); in the test with SK-MEL-5, 11.1 µM (inactive); with TK-10 it was 76.6 µM (inactive); in the test with UO-31, 21.8 µM (inactive). The GI50 is 21.2 µM (inactive) in the test on SF-295; 39.6 µM (inactive) with EKVX; 34.9 µM (inactive) in the test on A498; 16.8 µM (inactive) with RXF 393; 10.7 µM (inactive) with HL-60; 37.2 µM (inactive) in the test on HT-29. For the same molecule, the GI50 in the test with NCI-H226 is 22 µM (inactive); with A549, 28.2 µM (inactive); in the test on ACHN it was 36.8 µM (inactive); in the test on SK-MEL-2 it was 18.7 µM (inactive).

With `COC(=O)N1C=CC2=C(C)C3Nc4ccccc4C3C(C)=C2C1` (stereo not drawn), the GI50 in the test with SK-MEL-28 is 7.29 µM (inactive); with M14, 1.64 µM (inactive); in the test on NCI-H23, 4.54 µM (inactive); with SK-MEL-5 it was 3.15 µM (inactive); in the test with TK-10 it was 1.66 µM (inactive); with UO-31, 1.29 µM (inactive). Further, the GI50 was 1.64 µM (inactive) with SF-295; 1.25 µM (inactive) in the test on EKVX; 16.2 µM (inactive) in the test with A498; 1.98 µM (inactive) with HL-60; 1.96 µM (inactive) in the test on HT-29; 1.61 µM (inactive) with NCI-H226. The values for the GI50 in the test on A549, in the test with ACHN and in the test on SK-MEL-2 were 1.69 µM (inactive), 0.521 µM (active) and 1.47 µM (inactive), respectively.

`Cc1ccc(C(=O)/C=C2\Nc3c(c(=O)oc4ccccc34)N=C2NC23CC4CC(CC(C4)C2)C3)cc1`: the GI50 in the test with SK-MEL-28, in the test on M14, with NCI-H23, in the test with SK-MEL-5, in the test with SR and in the test on TK-10 was > 100 µM (inactive) in each case. The GI50 in the test on UO-31, in the test on EKVX, in the test with RXF 393, in the test with HL-60, with HT-29 and in the test with NCI-H226 was > 100 µM (inactive) throughout. Further, the GI50 with A549, in the test with ACHN and with SK-MEL-2 was > 100 µM (inactive) in each case.

Take `CN(C)CCNC(=O)c1ccc(Cl)c2c(Nc3ccc(S(=O)(=O)N=C(N)N)cc3)c3ccccc3nc12`: the GI50 in the test on SK-MEL-28 was 11.2 µM (inactive); with M14, 7.38 µM (inactive); in the test on NCI-H23, 4.68 µM (inactive); with SK-MEL-5, 8.04 µM (inactive); in the test on SR, 0.54 µM (active); with TK-10 it was 12.6 µM (inactive). Moreover, the GI50 with UO-31 is 0.349 µM (active); with SF-295, 3.16 µM (inactive); in the test on EKVX, 11.4 µM (inactive); in the test on RXF 393, 4.66 µM (inactive); in the test on HL-60, 1.7 µM (inactive); in the test on HT-29, 2.05 µM (inactive). In addition, the GI50 in the test with NCI-H226 was 2.08 µM (inactive); in the test with A549, 3.33 µM (inactive); in the test with ACHN, 4.22 µM (inactive); with SK-MEL-2 it was 9.75 µM (inactive).

On to `CC1(C)C(=O)N(CCCCCCN2C(=O)C(C)(C)c3ccccc32)c2ccccc21`, for which the GI50 with SK-MEL-28 was 47.2 µM (inactive); in the test with M14 it was 24.6 µM (inactive); in the test on NCI-H23, 42.6 µM (inactive); with SK-MEL-5, 18.6 µM (inactive); in the test with TK-10, 58.3 µM (inactive); in the test with UO-31 it was 31.2 µM (inactive). Besides, the GI50 in the test on SF-295 was 44.1 µM (inactive); with EKVX, 38.1 µM (inactive); in the test on A498, > 100 µM (inactive); in the test with HL-60, 2.04 µM (inactive); in the test with HT-29, 19 µM (inactive); in the test on NCI-H226, 26.3 µM (inactive). Further, the GI50 with A549 was 43.4 µM (inactive); with ACHN it was 25.6 µM (inactive); with SK-MEL-2 it was 48.6 µM (inactive).

For `C1=C2/CC[C@H](Sc3ccccc3)[C@H]2C2(CCCCC/1)OCCO2`, the GI50 in the test on SK-MEL-28 was > 100 µM (inactive); with M14, 27.9 µM (inactive); in the test with NCI-H23 it was 34.8 µM (inactive); with SK-MEL-5 it was 29.6 µM (inactive); in the test on SR, 42.9 µM (inactive); in the test with TK-10, > 100 µM (inactive). For the same molecule, the GI50 in the test with UO-31 is 27 µM (inactive); in the test on SF-295 it was 37.8 µM (inactive); with EKVX it was 18.5 µM (inactive); with HL-60 it was 22.2 µM (inactive); in the test on HT-29, 34.6 µM (inactive); in the test with A549 it was 51.8 µM (inactive). Besides, the GI50 is 35.6 µM (inactive) with ACHN and 16.9 µM (inactive) in the test with SK-MEL-2.

Consider `Brc1cc2c(cc1C1SCCS1)OCO2`, for which the GI50 in the test on SK-MEL-28, in the test with M14, in the test on NCI-H23, in the test with SK-MEL-5, with SR and with TK-10 was > 100 µM (inactive) each time. The GI50 is > 100 µM (inactive) in the test with UO-31; > 100 µM (inactive) in the test with SF-295; > 100 µM (inactive) in the test on EKVX; > 100 µM (inactive) with A498; 96.4 µM (inactive) with HL-60; > 100 µM (inactive) with HT-29. Besides, the GI50 in the test on A549, in the test on ACHN and with SK-MEL-2 was > 100 µM (inactive) in each case.

For the molecule `CN1C(=O)CCC2[C@@H]3CC=C4C[C@@H](O)CC[C@]4(C)C3CC[C@@]21C` (stereo partly drawn), the GI50 is > 100 µM (inactive) in the test on SK-MEL-28; 83.6 µM (inactive) in the test on M14; 25.4 µM (inactive) in the test with NCI-H23; 13.5 µM (inactive) with SK-MEL-5; > 100 µM (inactive) with TK-10; 33.8 µM (inactive) in the test with UO-31. Also, the GI50 with SF-295 is 27.2 µM (inactive); in the test on EKVX it was 67.5 µM (inactive); in the test on A498 it was > 100 µM (inactive); in the test on RXF 393, 18.3 µM (inactive); with HL-60, 11.5 µM (inactive); in the test with HT-29, 36.6 µM (inactive). The GI50 was > 100 µM (inactive) in the test with NCI-H226, 46.1 µM (inactive) with A549, 42.4 µM (inactive) in the test on ACHN and > 100 µM (inactive) with SK-MEL-2.

Turning to `O=c1c2c([nH]c3cc4c(cc13)OCO4)-c1ccccc1C2`, the GI50 with SK-MEL-28 is 22.6 µM (inactive); in the test on M14 it was 20.6 µM (inactive); with NCI-H23, 26.1 µM (inactive); in the test on SK-MEL-5, 16 µM (inactive); in the test on SR it was 18.1 µM (inactive); in the test with TK-10 it was 10.7 µM (inactive). The GI50 is 24.8 µM (inactive) in the test with UO-31; 26.9 µM (inactive) in the test with SF-295; 29.6 µM (inactive) with EKVX; 16.4 µM (inactive) with RXF 393; 27.7 µM (inactive) in the test with HL-60; 17.7 µM (inactive) with HT-29. Besides, the GI50 was 27.2 µM (inactive) in the test on NCI-H226, 27.1 µM (inactive) with A549, 19.4 µM (inactive) with ACHN and 13.5 µM (inactive) in the test with SK-MEL-2.

For `O=C(N[C@H]1CC2(C=C(I)C(=O)C(I)=C2)OC1=O)OCc1ccccc1`, the GI50 was 18.5 µM (inactive) in the test on SK-MEL-28; 17.2 µM (inactive) in the test with M14; 17.8 µM (inactive) in the test on NCI-H23; 27 µM (inactive) with SK-MEL-5; 17.7 µM (inactive) in the test with TK-10; 18.2 µM (inactive) in the test on UO-31. Also, the GI50 with SF-295 is 19.5 µM (inactive); with EKVX, 14.3 µM (inactive); in the test with A498, > 100 µM (inactive); in the test with RXF 393, 15.2 µM (inactive); with HL-60 it was 3.93 µM (inactive); in the test with HT-29, 17.5 µM (inactive). The GI50 with NCI-H226 was 22.7 µM (inactive); in the test on A549, 42.8 µM (inactive); in the test with ACHN, 18.5 µM (inactive).

For `Cc1c(C(=O)O)oc2ccc([N+](=O)[O-])cc12`, the GI50 in the test on SK-MEL-28, with M14, with NCI-H23, in the test on SK-MEL-5, in the test on TK-10 and in the test with UO-31 was > 100 µM (inactive) in each case. Moreover, the GI50 in the test with SF-295, with EKVX, in the test on A498, in the test on HL-60, in the test with HT-29 and with A549 was > 100 µM (inactive) each time. The GI50 in the test with ACHN and with SK-MEL-2 was > 100 µM (inactive) each time.
